Laboratory results taken from PMC12562854, “Resin Glycosides with α-Glucosidase and Protein Tyrosine Phosphatase 1B Inhibitory Activities from the Seeds of Cuscuta japonica” (Biomolecules, 2025).
Like-named read-outs stand apart in the source and are kept apart here. One block for each compound: values may come before it.

Assays:
[1] = target: T1, PTP1B (Homo sapiens, UniProt P18031); assay: PTP1B inhibitory assay (pNPP hydrolysis); assay type: biochemical; conditions: for IC50: mean ± SD of three independent experiments; for inhibition at 100 µM: percent inhibition at a concentration of 100 μM
T1 construct: purchased MedChemExpress LLC
T1 sequence (P18031 1-435): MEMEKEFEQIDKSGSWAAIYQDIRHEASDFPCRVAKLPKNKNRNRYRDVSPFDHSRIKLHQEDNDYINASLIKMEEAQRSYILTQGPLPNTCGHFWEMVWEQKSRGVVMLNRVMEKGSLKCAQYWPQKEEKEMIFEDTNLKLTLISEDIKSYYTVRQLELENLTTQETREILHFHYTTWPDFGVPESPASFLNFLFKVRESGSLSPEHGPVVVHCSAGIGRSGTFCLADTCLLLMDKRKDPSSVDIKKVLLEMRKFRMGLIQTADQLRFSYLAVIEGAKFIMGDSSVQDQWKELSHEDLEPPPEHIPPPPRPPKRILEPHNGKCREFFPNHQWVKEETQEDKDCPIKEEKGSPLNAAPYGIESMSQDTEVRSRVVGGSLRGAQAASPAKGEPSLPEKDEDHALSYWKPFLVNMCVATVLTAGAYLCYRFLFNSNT
Procedure: The inhibitory activity against PTP1B was assessed via the p-nitrophenyl phosphate (pNPP) hydrolysis assay. The reaction buffer consisted of 50 mM citrate buffer (pH 6.0) supplemented with 0.1 M NaCl, 2 mM EDTA, and 1 mM DTT. Recombinant PTP1B enzyme (MedChemExpress LLC, Monmouth Junction, NJ, USA) was used at a concentration of 5 μg/mL, with 10 mM pNPP serving as the substrate. The enzymatic reaction was terminated by the addition of 1M NaOH.

[2] = target: T2, α-glucosidase (Saccharomyces cerevisiae, UniProt P53341); assay: α-Glucosidase inhibitory assay (pNPG hydrolysis); assay type: biochemical; conditions: for inhibition at 100 µM: read-out: α-Glucosidase Inhibition (%)
T2 construct: purchased Sigma-Aldrich Inc
Procedure: In brief, 140 μL of phosphate buffer (0.2 M, pH 6.8) was added to the 96-well microplate wells, followed by the addition of 10 μL α-glucosidase solution (0.5 U/mL, Sigma-Aldrich Inc., Saint Louis, MO, USA) and 2 μL of the test compound. The control wells contained 2 μL of DMSO in place of the test sample, while the enzyme solution was replaced by an additional 10 μL of phosphate buffer in the background wells. After preincubation at 37 °C for 10 min, 48 μL of 2 mM p-nitrophenyl-α-D-glucopyranoside (pNPG) was introduced into each well. The reaction mixtures were incubated for 30 min before being terminated by adding 50 μL of 0.1 M Na2CO3 solution. Absorbance was measured at 405 nm using a microplate reader. […] All assays were performed in triplicate and repeated three times independently.

[3] = target: T1, PTP1B; assay: Enzyme reversibility and kinetics analysis, PTP1B; assay type: biochemical
Procedure: (§1) Reversibility was assessed by plotting the enzyme reaction velocity (v) against varying enzyme concentrations in the presence of different inhibitor concentrations. Lineweaver–Burk plots (1/v vs. 1/[S]) were constructed by measuring reaction velocities at multiple substrate concentrations with varying amounts of inhibitors. From these plots, inhibition type, as well as Michaelis–Menten constants Km and Vmax, were determined. Additionally, slopes and Y-intercepts of these reciprocal plots were also plotted against inhibitor concentrations to further characterize the inhibition constants Ki and Kis, respectively.

[4] = target: α-glucosidase; conditions: cited from earlier work; for α-Glucosidase inhibition (in words): affinity-directed fractionation-mass spectrometry
[5] = target: T2, α-glucosidase; assay: Enzyme reversibility and kinetics analysis, α-glucosidase; assay type: biochemical
Procedure: as §1

[6] = read-out: α-Glucosidase IC50, mean ± SD of three independent experiments
[7] = secondary plot of Y-intercept from Lineweaver–Burk data
[8] = velocity vs enzyme concentration at different inhibitor levels

T2 sequence (P53341 whole entry): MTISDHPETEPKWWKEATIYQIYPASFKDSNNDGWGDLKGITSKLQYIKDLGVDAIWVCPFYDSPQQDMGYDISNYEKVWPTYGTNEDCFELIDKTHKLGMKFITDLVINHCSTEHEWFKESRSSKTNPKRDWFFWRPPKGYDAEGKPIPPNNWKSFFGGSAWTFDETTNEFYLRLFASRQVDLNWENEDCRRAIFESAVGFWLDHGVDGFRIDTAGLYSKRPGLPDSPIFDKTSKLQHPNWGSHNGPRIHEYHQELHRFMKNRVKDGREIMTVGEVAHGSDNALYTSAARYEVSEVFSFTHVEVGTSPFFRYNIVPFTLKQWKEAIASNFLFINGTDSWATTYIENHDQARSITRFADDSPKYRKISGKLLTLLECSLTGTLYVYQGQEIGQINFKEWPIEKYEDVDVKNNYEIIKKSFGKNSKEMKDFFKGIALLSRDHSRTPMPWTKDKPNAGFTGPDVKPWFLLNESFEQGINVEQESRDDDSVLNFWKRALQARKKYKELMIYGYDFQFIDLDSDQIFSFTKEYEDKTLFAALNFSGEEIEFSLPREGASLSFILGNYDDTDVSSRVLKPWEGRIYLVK

Compound: CCCC[C@@H](CCCCCCCCCC(=O)OC)O[C@@H]1O[C@H](C)[C@H](O)[C@H](O)[C@H]1O[C@@H]1O[C@H](CO)[C@@H](O)[C@H](O[C@@H]2O[C@H](CO)[C@@H](O)[C@H](O)[C@H]2O)[C@H]1O[C@@H]1O[C@@H](C)[C@H](O)[C@@H](O)[C@H]1O [Compound 7, Cusponin VII]
IC50 [1]: > 100 µM
inhibition at 100 µM [1]: 15.9 ± 2.92%
IC50 [2, 6]: > 100 µM
inhibition at 100 µM [2]: 49.4 ± 1.71%

Compound: CCCC[C@@H](CCCCCCCCCC(=O)OC)O[C@@H]1O[C@H](C)[C@H](O)[C@H](O)[C@H]1O[C@@H]1O[C@H](CO)[C@@H](O)[C@H](O[C@@H]2O[C@H](CO)[C@@H](O)[C@H](O)[C@H]2O)[C@H]1O[C@@H]1O[C@@H](C)[C@H](OC(=O)[C@H](C)[C@@H](C)O)[C@@H](O)[C@H]1O [Compound 6, Cusponin VI]
IC50 [1]: > 100 µM
inhibition at 100 µM [1]: 29.9 ± 4.5%
IC50 [2, 6]: 71.4 ± 3.23 µM
inhibition at 100 µM [2]: 60.5 ± 5.42%

Compound: CCCCC[C@@H](CCCCCCCCCC(=O)OC)O[C@@H]1O[C@H](CO)[C@@H](O)[C@H](O)[C@H]1O[C@@H]1O[C@@H](C)[C@H](O[C@@H]2O[C@@H](C)[C@H](O[C@@H]3O[C@@H](C)[C@H](O)[C@@H](O)[C@H]3O)[C@@H](O[C@@H]3O[C@H](CO)[C@@H](O)[C@H](O)[C@H]3O)[C@H]2O)[C@@H](O)[C@H]1O [Compound 8, operculinic acid B methyl ester]
IC50 [1]: > 100 µM
inhibition at 100 µM [1]: 7.78 ± 1.98%
IC50 [2, 6]: 65.1 ± 9.41 µM
inhibition at 100 µM [2]: 64.6 ± 3.12%

Compound: CCCC[C@@H](CCCCCCCCCC(=O)OC)O[C@@H]1O[C@H](CO)[C@@H](O)[C@H](O)[C@H]1O[C@@H]1O[C@@H](C)[C@H](O[C@@H]2O[C@@H](C)[C@H](O[C@@H]3O[C@@H](C)[C@H](O)[C@@H](O)[C@H]3O)[C@@H](O[C@@H]3O[C@H](CO)[C@@H](O)[C@H](O)[C@H]3O)[C@H]2O)[C@@H](O)[C@H]1O [Compound 3, Cusponin III]
IC50 [1]: 14.2 ± 1.29 µM
inhibition at 100 µM [1]: 89.2 ± 2.55%
Inhibition type, PTP1B ([3]; Lineweaver–Burk plot): mixed-type
Vmax of PTP1B in presence of inhibitor ([3]; at 25 μM compound 3 (0.104 at 0 μM)): 0.075
Inhibition constant Kis (enzyme–substrate complex), PTP1B [3, 7]: 64.24 µM
Ki ([3]; secondary plot of slope from Lineweaver–Burk data, read-out: Inhibition constant Ki (free enzyme), PTP1B): 24.8 µM
Reversibility of PTP1B inhibition [3, 8]: reversible
IC50 [2, 6]: 64.9 ± 2.97 µM
inhibition at 100 µM [2]: 67.1 ± 1.18%

inhibition at 100 µM [1]: 90.4 ± 5.23%
Compound: C[C@H]1[C@H](C)CC[C@]2(C(=O)O)CC[C@]3(C)C(=CC[C@@H]4[C@@]5(C)CC[C@H](O)C(C)(C)[C@@H]5CC[C@]43C)[C@H]12 [Ursolic acid, ursolic acid, reference compound]

Compound: CCCC[C@@H](CCCCCCCCCC(=O)OC)O[C@@H]1O[C@H](CO)[C@@H](O)[C@H](O)[C@H]1O[C@@H]1O[C@@H](C)[C@H](O[C@@H]2O[C@@H](C)[C@H](O[C@@H]3O[C@@H](C)[C@H](O)[C@@H](O[C@@H]4O[C@H](CO)[C@@H](O)[C@H](O)[C@H]4O)[C@H]3O)[C@@H](O)[C@H]2O)[C@@H](O)[C@H]1O [Compound 1, Cusponin I]
IC50 [1]: > 100 µM
inhibition at 100 µM [1]: 5.41 ± 0.67%
IC50 [2, 6]: 38.2 ± 3.36 µM
inhibition at 100 µM [2]: 68.7 ± 4.11%

Compound: operculinic acid A
IC50 ([4]; from Ipomoea biflora): 78.3 µM

Compound: CCCCC[C@@H](CCCCCCCCCC(=O)OC)O[C@@H]1O[C@H](CO)[C@@H](O)[C@H](O)[C@H]1O[C@@H]1O[C@@H](C)[C@H](O[C@@H]2O[C@@H](C)[C@H](O[C@@H]3O[C@@H](C)[C@H](O)[C@@H](O[C@@H]4O[C@H](CO)[C@@H](O)[C@H](O)[C@H]4O)[C@H]3O)[C@@H](O)[C@H]2O)[C@@H](O)[C@H]1O [Compound 2, Cusponin II]
IC50 [1]: > 100 µM
inhibition at 100 µM [1]: 3.26 ± 0.16%
IC50 [2]: 8.02 ± 2.9 µM
inhibition at 100 µM [2]: 83 ± 0.84%
Inhibition type, α-glucosidase ([5]; Lineweaver–Burk plots): uncompetitive
Vmax of α-glucosidase in presence of inhibitor ([5]; at 16 μM compound 2 (0.115 at 0 μM)): 0.021
Inhibition constant Kis (enzyme–substrate complex), α-glucosidase [5, 7]: 3.02 µM
Reversibility of α-glucosidase inhibition [5, 8]: reversible

Compound: CCC[C@H]1CCCCCCCCCC(=O)O[C@H]2[C@H](OC[C@H]3O[C@@H](O[C@H]4[C@H](O1)O[C@H](C)[C@@H](O)[C@@H]4O)[C@H](O[C@@H]1O[C@@H](C)[C@H](OC(C)=O)[C@@H](O)[C@H]1O)[C@@H](O)[C@@H]3O)O[C@H](C)[C@@H](O)[C@@H]2OC(=O)[C@H](C)[C@@H](C)O [albinoside VI]
α-Glucosidase inhibition (in words) [4]: potent α-glucosidase inhibitors

Compound: CCCC[C@@H](CCCCCCCCCC(=O)OC)O[C@@H]1O[C@H](C)[C@H](O)[C@H](O)[C@H]1O[C@@H]1O[C@@H](C)[C@H](O[C@@H]2O[C@@H](C)[C@H](O[C@@H]3O[C@@H](C)[C@H](O)[C@@H](O)[C@H]3O)[C@@H](O[C@@H]3O[C@H](CO)[C@@H](O)[C@H](O)[C@H]3O)[C@H]2O)[C@@H](O)[C@H]1O [Compound 4, Cusponin IV]
IC50 [1]: > 100 µM
inhibition at 100 µM [1]: 15 ± 2.45%
IC50 [2, 6]: 55.5 ± 6.89 µM
inhibition at 100 µM [2]: 66.5 ± 3.65%

Compound: CCCC[C@@H](CCCCCCCCCC(=O)OC)O[C@@H]1O[C@H](C)[C@H](O)[C@H](O)[C@H]1O[C@@H]1O[C@H](CO)[C@@H](O)[C@H](O[C@@H]2O[C@H](CO)[C@@H](O)[C@H](O)[C@H]2O)[C@H]1O[C@@H]1O[C@@H](C)[C@H](OC(=O)[C@H](C)[C@@H](C)OC(=O)[C@H](C)[C@@H](C)O)[C@@H](O)[C@H]1O [Compound 5, Cusponin V]
IC50 [1]: 62.3 ± 8.61 µM
inhibition at 100 µM [1]: 52.7 ± 4.6%
IC50 [2, 6]: > 100 µM
inhibition at 100 µM [2]: 51.8 ± 1.77%

Compound: CCC[C@H]1CCCCCCCCCC(=O)O[C@H]2[C@H](O[C@H]3[C@H](O)[C@@H](C)O[C@@H](O[C@H]4[C@H](O1)O[C@H](C)[C@@H](O)[C@@H]4O)[C@@H]3O[C@@H]1O[C@@H](C)[C@H](OC(C)=O)[C@@H](O)[C@H]1O)O[C@H](C)[C@@H](O)[C@@H]2OC(=O)[C@H](C)[C@@H](C)O [albinoside VII]
α-Glucosidase inhibition (in words) [4]: potent α-glucosidase inhibitors
